# Laboratory results taken from paper PMC5148754, “Response surface methodology-based optimization of production media and purification of α-galactosidase in solid-state fermentation by Fusarium moniliforme NCIM 1099” (3 Biotech, 2016).
# Assays:
# α-galactosidase [1] = test system: T1, α-galactosidase; assay: initial rate of hydrolysis, Lineweaver-Burk; assay type: biochemical, Fusarium verticillioides; settings: citrate phosphate buffer pH 5.0, 50 °C (standard assay); read-out: apparent Km
# T1 construct: gene EC 3.2.1.22; single band 57 kDa on SDS-PAGE; optimum pH 4.0
# α-galactosidase [2] = test system: T1, α-galactosidase; assay: initial rate of hydrolysis, p-nitrophenol release at […] nm, Lineweaver-Burk; assay type: biochemical, Fusarium verticillioides; settings: citrate phosphate buffer pH 5.0, 50 °C (standard assay); read-out: apparent Km
SMILES,Km (α-galactosidase [1]),Km (α-galactosidase [2])
OC[C@H]1O[C@H](OC[C@H]2OC(O)[C@H](O)[C@@H](O)[C@@H]2O)[C@H](O)[C@@H](O)[C@H]1O (stereo partly drawn) [melibiose],1.36 mM,–
O=[N+]([O-])c1ccc(O[C@H]2O[C@H](CO)[C@H](O)[C@H](O)[C@H]2O)cc1 [p-nitrophenyl-α-D-galactopyranoside],–,200 µM
OC[C@H]1O[C@H](OC[C@H]2O[C@H](O[C@]3(CO)O[C@H](CO)[C@@H](O)[C@@H]3O)[C@H](O)[C@@H](O)[C@@H]2O)[C@H](O)[C@@H](O)[C@H]1O [raffinose],3.66 mM,–
